According to the kinase profiling compilation of Christmann-Franck et al. (2016):

Key:
Experiment in all cases: radiometric filter-binding kinase assay
[1] = molecular target: HIPK2 (human) (UniProt Q9H2X6)
[2] = molecular target: NEK6 (human) (UniProt Q9HC98)
[3] = molecular target: EPHB3 (human) (UniProt P54753); settings: compound 10.0 µM
[4] = molecular target: MARK3 (human) (UniProt P27448)
[5] = molecular target: EPHA2 (human) (UniProt P29317)
[6] = molecular target: MAP2K6 (human) (UniProt P52564)
[7] = molecular target: PAK7 (human) (UniProt Q9P286)
[8] = molecular target: DAPK1 (human) (UniProt P53355)
[9] = molecular target: PRKCZ (human) (UniProt Q05513)
[10] = molecular target: MAP3K9 (human) (UniProt P80192)
[11] = test system: AKT1 (human), P31749 [S473D]
[12] = molecular target: IKBKE (human) (UniProt Q14164)
[13] = molecular target: MARK1 (human) (UniProt Q9P0L2)
[14] = molecular target: MAPKAPK5 (human) (UniProt Q8IW41)
[15] = molecular target: PAK4 (human) (UniProt O96013)
[16] = molecular target: RPS6KA5 KD1 KD2 (human) (UniProt O75582)
[17] = molecular target: HIPK3 (human) (UniProt Q9H422)
[18] = molecular target: BTK (human) (UniProt Q06187)
[19] = molecular target: MAPK14 (human) (UniProt Q16539); settings: compound 1.0 µM
[20] = molecular target: MST4 (human) (UniProt Q9P289)
[21] = molecular target: MAPK11 (human) (UniProt Q15759)
[22] = molecular target: NUAK1 (human) (UniProt O60285)
[23] = molecular target: CaMK1 (human) (UniProt Q14012)
[24] = molecular target: PAK6 (human) (UniProt Q9NQU5)
[25] = test system: LCK (mouse); settings: accession and sequence are those of the human protein
[26] = molecular target: HIPK1 (human) (UniProt Q86Z02)
[27] = molecular target: EPHB1 (human) (UniProt P54762)
[28] = molecular target: TAOK1 (human) (UniProt Q7L7X3)
[29] = molecular target: ERBB4 (human) (UniProt Q15303)
[30] = molecular target: MAPK13 (human) (UniProt O15264)
[31] = molecular target: EEF2K (human) (UniProt O00418)
[32] = molecular target: DYRK3 (human) (UniProt O43781)
[33] = molecular target: CSNK2A1 (human) (UniProt P68400)
[34] = molecular target: DYRK1A (human) (UniProt Q13627)
[35] = test system: ROCK2 (rat); settings: accession and sequence are those of the human protein
[36] = molecular target: DYRK2 (human) (UniProt Q92630)

BTK (human), sequence (Q06187 whole entry, looked up): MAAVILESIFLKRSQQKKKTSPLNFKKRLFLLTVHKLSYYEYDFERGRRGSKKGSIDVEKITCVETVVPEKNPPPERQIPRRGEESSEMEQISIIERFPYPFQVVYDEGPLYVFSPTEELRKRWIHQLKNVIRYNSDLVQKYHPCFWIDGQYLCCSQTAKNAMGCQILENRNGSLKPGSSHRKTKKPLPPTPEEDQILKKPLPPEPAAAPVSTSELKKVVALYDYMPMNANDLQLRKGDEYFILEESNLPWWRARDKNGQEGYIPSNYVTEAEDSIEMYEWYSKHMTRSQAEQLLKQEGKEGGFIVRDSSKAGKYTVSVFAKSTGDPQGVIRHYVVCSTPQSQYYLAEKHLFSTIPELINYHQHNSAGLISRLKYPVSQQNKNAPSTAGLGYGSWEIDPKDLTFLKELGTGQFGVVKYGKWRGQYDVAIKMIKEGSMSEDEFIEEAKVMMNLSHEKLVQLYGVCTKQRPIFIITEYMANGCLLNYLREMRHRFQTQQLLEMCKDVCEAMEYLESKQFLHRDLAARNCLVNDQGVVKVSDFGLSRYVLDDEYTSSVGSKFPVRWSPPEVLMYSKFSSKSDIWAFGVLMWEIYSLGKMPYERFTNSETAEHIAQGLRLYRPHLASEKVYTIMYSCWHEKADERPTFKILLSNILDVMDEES
AKT1 (human), P31749 [S473D], sequence (P31749 whole entry S473D, looked up): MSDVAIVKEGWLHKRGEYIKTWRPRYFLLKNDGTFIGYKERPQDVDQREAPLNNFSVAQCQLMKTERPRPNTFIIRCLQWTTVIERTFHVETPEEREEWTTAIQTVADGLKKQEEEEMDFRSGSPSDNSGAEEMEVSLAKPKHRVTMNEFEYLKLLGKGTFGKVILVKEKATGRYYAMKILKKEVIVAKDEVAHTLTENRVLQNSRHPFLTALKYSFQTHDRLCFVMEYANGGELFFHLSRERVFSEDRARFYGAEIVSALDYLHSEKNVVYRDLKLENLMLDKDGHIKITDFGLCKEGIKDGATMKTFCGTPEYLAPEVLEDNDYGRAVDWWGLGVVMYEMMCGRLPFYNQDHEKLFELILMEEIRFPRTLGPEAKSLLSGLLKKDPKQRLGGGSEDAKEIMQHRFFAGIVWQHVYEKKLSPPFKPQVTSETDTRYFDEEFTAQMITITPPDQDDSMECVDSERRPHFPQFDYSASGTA
EPHA2 (human), sequence (P29317 whole entry, looked up): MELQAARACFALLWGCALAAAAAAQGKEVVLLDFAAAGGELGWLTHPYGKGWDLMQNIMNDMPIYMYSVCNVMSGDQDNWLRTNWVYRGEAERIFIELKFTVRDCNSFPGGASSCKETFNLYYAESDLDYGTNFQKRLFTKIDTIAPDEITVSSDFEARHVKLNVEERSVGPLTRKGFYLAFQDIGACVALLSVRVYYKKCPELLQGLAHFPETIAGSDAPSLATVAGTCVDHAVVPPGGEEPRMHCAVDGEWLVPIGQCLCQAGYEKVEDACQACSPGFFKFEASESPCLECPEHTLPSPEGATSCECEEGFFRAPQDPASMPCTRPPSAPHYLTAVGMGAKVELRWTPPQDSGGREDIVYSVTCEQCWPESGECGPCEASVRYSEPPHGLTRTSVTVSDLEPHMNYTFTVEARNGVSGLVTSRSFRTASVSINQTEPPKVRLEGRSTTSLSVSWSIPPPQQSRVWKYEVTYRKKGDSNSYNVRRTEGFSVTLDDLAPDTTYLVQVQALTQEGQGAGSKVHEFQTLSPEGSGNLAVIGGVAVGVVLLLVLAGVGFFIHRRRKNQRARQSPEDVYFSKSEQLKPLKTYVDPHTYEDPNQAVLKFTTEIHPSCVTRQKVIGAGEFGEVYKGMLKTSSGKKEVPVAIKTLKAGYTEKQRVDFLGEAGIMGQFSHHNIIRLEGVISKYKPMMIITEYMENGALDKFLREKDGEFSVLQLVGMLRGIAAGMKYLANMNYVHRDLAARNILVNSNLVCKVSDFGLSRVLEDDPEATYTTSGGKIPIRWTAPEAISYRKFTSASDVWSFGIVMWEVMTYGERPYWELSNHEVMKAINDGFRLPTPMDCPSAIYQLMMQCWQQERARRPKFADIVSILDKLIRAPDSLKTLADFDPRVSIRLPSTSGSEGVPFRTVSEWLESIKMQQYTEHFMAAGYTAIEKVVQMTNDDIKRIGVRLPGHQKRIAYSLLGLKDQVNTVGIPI
TAOK1 (human), sequence (Q7L7X3 whole entry, looked up): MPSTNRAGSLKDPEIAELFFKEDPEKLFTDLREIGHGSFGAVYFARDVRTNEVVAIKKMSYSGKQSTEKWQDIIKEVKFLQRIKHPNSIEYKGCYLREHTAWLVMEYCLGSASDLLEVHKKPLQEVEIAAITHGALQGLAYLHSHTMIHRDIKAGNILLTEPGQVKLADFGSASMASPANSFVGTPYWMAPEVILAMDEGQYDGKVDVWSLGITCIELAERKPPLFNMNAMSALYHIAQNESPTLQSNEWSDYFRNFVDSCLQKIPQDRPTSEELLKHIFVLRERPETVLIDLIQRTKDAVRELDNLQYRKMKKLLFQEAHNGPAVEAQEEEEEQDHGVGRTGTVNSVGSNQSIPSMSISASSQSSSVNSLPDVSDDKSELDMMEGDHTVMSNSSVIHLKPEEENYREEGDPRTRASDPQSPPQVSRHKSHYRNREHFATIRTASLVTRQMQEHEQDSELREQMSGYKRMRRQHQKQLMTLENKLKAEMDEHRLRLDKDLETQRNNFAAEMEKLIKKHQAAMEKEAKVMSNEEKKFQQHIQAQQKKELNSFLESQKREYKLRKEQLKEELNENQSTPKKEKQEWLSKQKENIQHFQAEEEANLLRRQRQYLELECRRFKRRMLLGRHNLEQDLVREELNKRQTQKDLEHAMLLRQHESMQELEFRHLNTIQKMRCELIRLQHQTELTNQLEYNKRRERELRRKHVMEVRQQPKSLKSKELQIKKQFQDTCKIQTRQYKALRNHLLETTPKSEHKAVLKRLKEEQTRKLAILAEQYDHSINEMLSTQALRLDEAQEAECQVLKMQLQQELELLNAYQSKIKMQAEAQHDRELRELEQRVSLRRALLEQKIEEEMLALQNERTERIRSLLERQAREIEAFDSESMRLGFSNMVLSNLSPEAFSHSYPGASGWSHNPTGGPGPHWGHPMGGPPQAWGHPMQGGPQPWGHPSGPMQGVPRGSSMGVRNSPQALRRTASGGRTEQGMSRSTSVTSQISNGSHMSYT
CaMK1 (human), sequence (Q14012 whole entry, looked up): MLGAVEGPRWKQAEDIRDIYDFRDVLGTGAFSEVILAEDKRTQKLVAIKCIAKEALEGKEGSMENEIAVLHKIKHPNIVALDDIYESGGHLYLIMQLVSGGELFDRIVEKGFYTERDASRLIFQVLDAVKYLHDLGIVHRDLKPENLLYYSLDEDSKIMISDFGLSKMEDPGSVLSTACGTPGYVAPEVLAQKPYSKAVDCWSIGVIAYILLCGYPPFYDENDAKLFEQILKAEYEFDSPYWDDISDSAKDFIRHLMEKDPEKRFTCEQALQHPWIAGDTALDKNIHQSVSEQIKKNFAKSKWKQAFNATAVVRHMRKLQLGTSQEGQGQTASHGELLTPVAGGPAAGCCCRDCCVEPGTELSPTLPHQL
DYRK3 (human), sequence (O43781 whole entry, looked up): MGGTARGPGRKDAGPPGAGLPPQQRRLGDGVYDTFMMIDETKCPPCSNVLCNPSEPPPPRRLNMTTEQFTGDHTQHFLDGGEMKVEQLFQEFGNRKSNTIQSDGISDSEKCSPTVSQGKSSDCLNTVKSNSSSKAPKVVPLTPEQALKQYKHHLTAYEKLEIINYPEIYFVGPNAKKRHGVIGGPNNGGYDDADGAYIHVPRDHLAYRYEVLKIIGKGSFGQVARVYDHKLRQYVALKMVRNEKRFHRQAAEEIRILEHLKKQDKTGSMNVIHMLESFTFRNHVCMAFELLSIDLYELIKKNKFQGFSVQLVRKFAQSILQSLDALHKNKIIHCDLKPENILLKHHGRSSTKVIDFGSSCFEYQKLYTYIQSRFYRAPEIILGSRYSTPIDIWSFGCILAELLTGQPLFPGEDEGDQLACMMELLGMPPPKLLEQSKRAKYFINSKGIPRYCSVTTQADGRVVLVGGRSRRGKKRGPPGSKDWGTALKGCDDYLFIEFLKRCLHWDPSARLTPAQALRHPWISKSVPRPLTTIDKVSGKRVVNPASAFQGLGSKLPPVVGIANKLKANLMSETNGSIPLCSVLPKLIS
RPS6KA5 KD1 KD2 (human), sequence (O75582 whole entry, looked up): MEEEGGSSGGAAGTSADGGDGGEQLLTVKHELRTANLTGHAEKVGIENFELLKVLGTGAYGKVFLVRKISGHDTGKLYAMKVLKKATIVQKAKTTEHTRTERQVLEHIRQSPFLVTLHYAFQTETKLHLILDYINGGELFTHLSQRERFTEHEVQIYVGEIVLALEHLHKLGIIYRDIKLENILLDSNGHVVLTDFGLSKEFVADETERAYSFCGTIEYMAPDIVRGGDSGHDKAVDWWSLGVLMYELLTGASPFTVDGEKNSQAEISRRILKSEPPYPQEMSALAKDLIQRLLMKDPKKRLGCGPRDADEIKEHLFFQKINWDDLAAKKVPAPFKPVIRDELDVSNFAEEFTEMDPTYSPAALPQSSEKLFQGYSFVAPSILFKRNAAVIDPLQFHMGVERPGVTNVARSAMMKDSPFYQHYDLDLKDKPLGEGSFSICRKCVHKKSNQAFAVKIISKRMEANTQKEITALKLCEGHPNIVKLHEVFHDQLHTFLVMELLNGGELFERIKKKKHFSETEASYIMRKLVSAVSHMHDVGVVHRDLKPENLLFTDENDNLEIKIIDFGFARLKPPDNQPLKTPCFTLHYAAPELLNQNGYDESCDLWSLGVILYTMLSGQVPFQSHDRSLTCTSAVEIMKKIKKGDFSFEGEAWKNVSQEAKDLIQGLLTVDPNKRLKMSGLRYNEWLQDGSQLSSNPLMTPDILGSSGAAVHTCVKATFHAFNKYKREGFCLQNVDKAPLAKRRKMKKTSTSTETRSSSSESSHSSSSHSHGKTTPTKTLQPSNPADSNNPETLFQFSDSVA

`Cc1nc(-c2ccc(OCC(C)C)c(C#N)c2)sc1C(=O)O` showed a residual activity ([1]; compound 1.0 µM) of 100%, a residual activity ([1]; compound 10.0 µM) of 98% and a residual activity ([2]; compound 1.0 µM) of 100%. The residual activity ([2]; compound 10.0 µM) was 99%, the residual activity [3] was 83% and the residual activity ([4]; compound 1.0 µM) was 91%. It also gave a residual activity ([4]; compound 10.0 µM) of 87%, a residual activity ([5]; compound 1.0 µM) of 104% and a residual activity ([5]; compound 10.0 µM) of 89%. The residual activity ([6]; compound 1.0 µM) was 85%, the residual activity ([6]; compound 10.0 µM) was 81% and the residual activity ([7]; compound 1.0 µM) was 101%. It also gave a residual activity ([7]; compound 10.0 µM) of 88%, a residual activity ([8]; compound 1.0 µM) of 85% and a residual activity ([8]; compound 10.0 µM) of 60%. For the same compound, the residual activity ([9]; compound 1.0 µM) was 93%, the residual activity ([9]; compound 10.0 µM) was 96% and the residual activity ([10]; compound 1.0 µM) was 69%. The residual activity ([10]; compound 10.0 µM) was 47%, the residual activity ([11]; compound 1.0 µM) was 97% and the residual activity ([11]; compound 10.0 µM) was 95%. For the same compound, the residual activity ([12]; compound 1.0 µM) was 138%, the residual activity ([12]; compound 10.0 µM) was 100% and the residual activity ([13]; compound 1.0 µM) was 96%. It also gave a residual activity ([13]; compound 10.0 µM) of 104%, a residual activity ([14]; compound 1.0 µM) of 87% and a residual activity ([14]; compound 10.0 µM) of 82%. For the same compound, the residual activity ([15]; compound 1.0 µM) was 85%, the residual activity ([15]; compound 10.0 µM) was 67% and the residual activity ([16]; compound 1.0 µM) was 94%. The residual activity ([16]; compound 10.0 µM) was 102%, the residual activity ([17]; compound 1.0 µM) was 108% and the residual activity ([17]; compound 10.0 µM) was 119%. It also gave a residual activity ([18]; compound 1.0 µM) of 103%, a residual activity ([18]; compound 10.0 µM) of 101% and a residual activity [19] of 105%. It also gave a residual activity ([20]; compound 1.0 µM) of 94%, a residual activity ([20]; compound 10.0 µM) of 90% and a residual activity ([21]; compound 1.0 µM) of 84%. It also gave a residual activity ([21]; compound 10.0 µM) of 91%, a residual activity ([22]; compound 1.0 µM) of 95% and a residual activity ([22]; compound 10.0 µM) of 73%. It also gave a residual activity ([23]; compound 1.0 µM) of 98%, a residual activity ([23]; compound 10.0 µM) of 93% and a residual activity ([24]; compound 1.0 µM) of 97%. It also gave a residual activity ([24]; compound 10.0 µM) of 107%, a residual activity ([25]; compound 1.0 µM) of 110% and a residual activity ([25]; compound 10.0 µM) of 102%. The residual activity ([26]; compound 1.0 µM) was 90%, the residual activity ([26]; compound 10.0 µM) was 95% and the residual activity ([27]; compound 1.0 µM) was 118%. For the same compound, the residual activity ([27]; compound 10.0 µM) was 103%, the residual activity ([28]; compound 1.0 µM) was 105% and the residual activity ([28]; compound 10.0 µM) was 101%. The residual activity ([29]; compound 1.0 µM) was 102%, the residual activity ([29]; compound 10.0 µM) was 103% and the residual activity ([30]; compound 1.0 µM) was 103%. For the same compound, the residual activity ([30]; compound 10.0 µM) was 97%, the residual activity ([31]; compound 1.0 µM) was 102% and the residual activity ([31]; compound 10.0 µM) was 95%. For the same compound, the residual activity ([32]; compound 1.0 µM) was 84%, the residual activity ([32]; compound 10.0 µM) was 65% and the residual activity ([33]; compound 1.0 µM) was 87%. It also gave a residual activity ([33]; compound 10.0 µM) of 71%, a residual activity ([34]; compound 1.0 µM) of 102% and a residual activity ([34]; compound 10.0 µM) of 85%. For the same compound, the residual activity ([35]; compound 1.0 µM) was 96%, the residual activity ([35]; compound 10.0 µM) was 80% and the residual activity ([36]; compound 1.0 µM) was 95%. It also gave a residual activity ([36]; compound 10.0 µM) of 83%.
